Assay results as given in patent publication US20060063736A1, “Compositions and methods for inhibiting mucin-type O-linked glycosylation” (priority 2004, published 2006).

How the values were obtained:
mppGalNAcT-1 = molecular target: T1, mppGalNAcT-1 (Mus musculus, UniProt O08912); assay: ELLA for ppGalNAcTs, mppGalNAcT-1; format: biochemical, murine; settings: for IC50: ELLA, 20 μM UDP-GalNAc, 50 μM EA2 peptide 4; for mode of inhibition with respect to UDP-GalNAc: mppGalNAcT-1; for Ki: mppGalNAcT-1, with respect to UDP-GalNAc, read-out: KI versus UDP-GalNAc
T1 construct: plasmids encoding truncated secreted ppGalNAcTs-1 to −5, -7, -10 and -11; made in house; host or cells: COS-7
T1 sequence (O08912 29-559 limits assumed): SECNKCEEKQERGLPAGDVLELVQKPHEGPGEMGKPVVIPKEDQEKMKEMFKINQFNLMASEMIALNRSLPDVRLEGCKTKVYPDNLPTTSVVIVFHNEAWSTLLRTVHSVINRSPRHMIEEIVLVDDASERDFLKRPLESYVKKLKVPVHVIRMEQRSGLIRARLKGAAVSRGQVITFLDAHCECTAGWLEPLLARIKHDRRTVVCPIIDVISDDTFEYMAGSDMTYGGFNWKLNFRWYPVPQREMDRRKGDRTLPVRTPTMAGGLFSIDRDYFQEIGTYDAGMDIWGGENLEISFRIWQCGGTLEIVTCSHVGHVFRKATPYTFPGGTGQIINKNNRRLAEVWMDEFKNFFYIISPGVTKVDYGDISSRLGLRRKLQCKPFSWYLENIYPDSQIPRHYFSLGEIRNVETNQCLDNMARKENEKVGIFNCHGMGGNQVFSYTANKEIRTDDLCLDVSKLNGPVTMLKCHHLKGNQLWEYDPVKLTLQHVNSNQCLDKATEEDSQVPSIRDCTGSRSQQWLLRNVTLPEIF
Protocol: COS-7 cells were transiently transfected with plasmids encoding truncated secreted ppGalNAcTs-1 to −5, -7, -10 and -11 as previously described. Hagen et al. (1997) J. Biol. Chem. 272:13843-13848. The crude conditioned medium was used as the enzyme source.
Standard reaction conditions for ppGalNAcT assays were as follows. The reaction mixture contained the following components in a final volume of 25 μL: 10 mM MnCl2, 40 mM sodium cacodylate, 40 mM β-mercaptoethanol, 0.1% Triton X-100, pH 6.5, 5 μL of conditioned media, and various concentrations of EA2 peptide 4, UDP-GalNAc and inhibitor. All uridine-based compounds were dissolved in dimethyl sulfoxide (DMSO). The concentration of DMSO in the reaction mixture was limited to 2% (v/v), as higher concentrations decreased ppGalNAcT activity. For inhibitor assays, reaction mixtures for positive controls also contained 2% DMSO. Unless otherwise stated, inhibitor assays were performed using 20 μM UDP-GalNAc and 50 μM EA2 peptide 4, the KM values for both substrates. Reactions were incubated at 37° C. and were terminated by the addition of 10 μL of 0.1 M EDTA. All experiments were performed in duplicate. Reaction rates were linear over the period monitored (20-30 min).
96-Well NeutrAvidin-coated plates were prewashed 3 times with 200 μL of wash buffer (25 mM Tris, 150 mM NaCl, 0.1% bovine serum albumin (BSA) (w/v), and 0.05% Tween (v/v), pH 7.2). Reactions were then transferred to the 96-well plates, incubated for 1 hour at room temperature (rt) and subsequently washed 3 times with 200 μL of phosphate-buffered saline (PBS) containing 0.5% BSA and 0.05% Tween, pH 7.1. A 100-μL solution of HPA-HRP in standard PBS buffer (1 μg/mL, pH 7.4) was added and the reaction was incubated for 1 h at rt. After 3 washes with 200 μL of PBS, bound HPA-HRP was quantified by the addition of 100 μL of TMB peroxide solution. The solutions were incubated for 5-15 min in the dark at rt. HRP activity was terminated by the addition of 50 μL of 2 N H2SO4 and the resulting solution was analyzed at 450 nm using a UV/Vis microtiter plate reader. The amount of product generated by the ppGalNAcT was extrapolated from absorbance values using an equation fit to the standard curve derived from Origin 6.1 software.
In order to screen the library in high-throughput format, a non-radioactive enzyme linked lectin assay (ELLA) for ppGalNAcTs was developed. As an acceptor substrate, the EA2 peptide (PTTDSTTPAPTTK; SEQ ID NO:12), a fragment of rat submandibular mucin, was chosen. Albone et al. (1994) J. Biol. Chem. 269:16845-16852. This peptide has been previously shown to be an efficient substrate for murine (m) ppGalNAcT-1 and is preferentially glycosylated at the fourth Thr residue from the N-terminus (underlined). Ten Hagen et al. (2001, supra). Biotinylation of EA2 allowed capture of (glyco)peptides onto 96-well NeutrAvidin-coated plates. The GalNAc-modified glycopeptide product could be detected using the α-GalNAc-specific lectin Helix pomatia agglutinin (HPA) (Hammarstrom et al. (1977) Biochemistry 16:2750-2755) conjugated to horseradish peroxidase (HRP). The bound HRP was quantified by addition of a chromogenic substrate.

[1] = molecular target: T2, α1-3galactosyltransferase (α1-3GalT) (Sus scrofa, UniProt P50127); assay: Continuous assay for α1-3GalT activity; format: biochemical, porcine; settings: for inhibitory activity against α1-3GalT: highest concentration tested (500 μM)
T2 construct: purchased Calbiochem
Protocol: The enzymatic reactions contained the following components in a final volume of 100 μL: 20 mM MnCl2, 100 mM sodium cacodylate, pH 6.5, 5 U of pyruvate kinase, 5 U of lactate dehydrogenase, 2 mM PEP, 0.2 mM NADH with 0.4 mU of β1-4GalT, 1 mM βOMeGlcNAc, 25 μM UDP-Gal or 1.0 mU of α1-3GalT, 1 mM LacNAc, 100 μM UDP-Gal and various concentrations of 1-68A or 2-68A in 2.5% DMSO. The reaction mixtures were incubated at 37° C. for 10 min before the reaction was initiated by the addition of UDP-Gal. The change in absorbance was monitored over 20 min at 340 nm.
To determine the selectivity of the compounds among the broader family of UDP-sugar utilizing enzymes, 1-68A and 2-68A were tested against bovine β1-4galactosyltransferase (β1-4GalT) and porcine α1-3galactosyltransferase (α1-3GalT), using a previously reported continuous colorimetric assay. Fitzgerald et al. (1970) Anal. Biochem. 36:43-61. Neither compound was active against β1-4GalT or α1-3GalT at the highest concentration tested (500 μM) (Entries 9 and 10, Table 1).

T2 sequence (P50127 whole entry): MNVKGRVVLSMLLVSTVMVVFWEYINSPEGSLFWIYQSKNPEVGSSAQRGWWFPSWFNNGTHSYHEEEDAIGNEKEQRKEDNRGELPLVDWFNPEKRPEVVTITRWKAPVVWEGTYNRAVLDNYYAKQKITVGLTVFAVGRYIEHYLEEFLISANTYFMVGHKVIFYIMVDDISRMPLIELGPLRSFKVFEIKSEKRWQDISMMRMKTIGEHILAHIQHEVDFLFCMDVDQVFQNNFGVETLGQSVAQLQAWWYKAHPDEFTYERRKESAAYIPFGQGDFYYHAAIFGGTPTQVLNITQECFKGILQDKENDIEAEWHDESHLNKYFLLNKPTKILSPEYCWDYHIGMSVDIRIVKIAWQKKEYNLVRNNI

SMILES | IC50 (mppGalNAcT-1) [µM] | mode of inhibition with respect to UDP-GalNAc (mppGalNAcT-1) | Ki (mppGalNAcT-1) [µM] | IC50 [1] [µM] | inhibitory activity against α1-3GalT [1]
O=c1ccn([C@@H]2O[C@H](CON=Cc3ccc(O)c(O)c3O)[C@@H](O)[C@H]2O)c(=O)[nH]1 [1-68A] | 21 ± 1 | competitive | 7.8 ± 0.1 | > 500 | lack of inhibitory activity
O=C(CON=Cc1ccc(O)c(O)c1O)NC[C@H]1O[C@@H](n2ccc(=O)[nH]c2=O)[C@H](O)[C@@H]1O [2-68A] | 24 ± 2 | competitive | 7.8 ± 1 | > 500 | lack of inhibitory activity
